# Measurements taken from patent US9364514B2, “Anti-tumor adjuvant therapy” (Universite Pierre et Marie Curie (Paris 6), priority 2011, dated 2016).
# Legend:
# [1] = system: mouse breast tumors from transgenic polyoma Middle-T mice (PyMT model); assay: Therapeutic assay in nude mice bearing xenografted mouse breast tumors (PyMT model); assay type: in vivo; settings: 5 mg/kg i.p. daily
# Excerpt: (§1) The primary human xenografts were obtained as previously described (Marangoni et al., 2007). Mouse breast cancer tumors were obtained using the transgenic Polyoma Middle-T Mouse PyMT model. Spontaneously growing mammary tumors occurring in transgenic mice were xenografted into nude immunodeficient mice to allow pharmacological assessments, and maintained from nude mouse to nude mouse serially passages.
# (§2) For therapeutic experimental assays, 5- to 8-week old Swiss nu/nu female mice received a subcutaneous graft of tumor fragments with a volume of approximately 15 mm3. Tumors developed at the graft site 2 to 6 weeks later. Mice bearing growing tumors with a volume of 40 to 200 mm^3 were individually identified and randomly assigned to the control or treatment groups (10 animals in each group) and treatments were started on day 1. Mice were weighed twice a week. Tumour-bearing mice were sacrificed when the tumor volume reached 2500 mm^3, defined as the ethical limit. Tumor volumes and antitumor activity were evaluated as previously reported (Nemati et al. 2009. Anti Cancer Drugs 20, pages 932-940).
# The anti-tumoral effect of the mouse peptide DPT-C9 was analyzed in nude mice bearing xenograft mouse breast tumors obtained from the transgenic polyoma Middle-T mice. […]
# [2] = system: breast cancer model BC52; assay: Therapeutic assay in mice bearing primary human breast cancer xenograft BC52; assay type: in vivo, Swiss nu/nu female mice
# Excerpt: as §1, §2
# (§3) DPT-C9h peptide diluted in water/glucose (1 to 25 mg/kg) was given by intraperitoneally route 5 to 7 days per week, according to the models and the therapeutic schedules. Doxorubicin (Teva Pharmaceuticals) and cyclophosphamide (Baxter) were diluted in 0.9% NaCl and administered intraperitoneally at a dose of 2 mg/kg and 100 mg/kg at day 1, respectively.
# (§4) The anti-tumoral effect of DPT-C9h was tested in mice bearing breast cancer model BC52 and BC146. DPT-C9h was intraperitoneally administered at 5 mg/kg once daily for 5 weeks.
# [3] = system: BC146 human breast cancer model; assay: Therapeutic assay in mice bearing primary human breast cancer xenograft BC146; assay type: in vivo, Swiss nu/nu female mice
# Excerpt: as §1, §2, §3, §4
# The inventors have further tested combined administration of DPT-C9h with doxorubicin and cyclophosphamid chemotherapy. The administration was either simultaneous or sequential: DPT-C9h was then administered at day 20, a stage corresponding to a chemotherapy-induced complete remission.
# [4] = system: MDA MB231 breast cancer cell line; assay: Detection of apoptosis by Annexin-V-FITC staining; assay type: cell-based
# Protocol: (§5) MDA MB231 breast cancer cell line was cultured in DMEM medium supplemented with 10% of FCS.
# Apoptotic cells were detected using Annexin-V (-FITC from BD biosciences) as described by the manufacturer. Briefly, the cells were washed in 1× binding buffer, centrifuged and then resuspended in 200 μl of 1× binding buffer containing Annexin V-FITC (0.1 μg/ml) and PI (0.5 μg/ml). After incubation at room temperature in the dark for 10 min, cells were analyzed by flow cytometry. Data acquired by FACSCalibur (BD biosciences) were analyzed with Cellquest Pro software.
# [5] = system: MDA MB231 breast cancer cell line; assay: Cytotoxicity assay (MTT); assay type: cell-based; settings: 61 h
# Protocol: as §5
# The cytotoxicity of chemotherapy and the peptide was assessed by MTT. […] Cells were rinsed with culture medium and incubated with 10 μl MTT (5 mg/ml) in a final volume of 100 μl for 4 h at 37° C. The formation of blue formazan crystals was visualized by microscopy. After this period of incubation, 100 μl of 10% SDS in 10 mM HCl was added to each well and the plate incubated overnight. The absorbance was measured at 570 and 620 nm and the percentage of viable cells to untreated controls was estimated.
# [6] = BC52 model, Treatment (Chemo.) = Ovariectomy, DPT-C9h 5 mg/kg i.p. once daily for 5 weeks
# [7] = BC146 model, Chemo. = Doxorubicin + cyclophosphamid, DPT-C9h 5 mg/kg i.p.
Substance,tumor growth inhibition [1],"tumor growth inhibition ([2]; BC52, 5 mg/kg i.p. once daily for 5 weeks, end of treatment)","OS: Overall survival [2, 6]","RTV: Relative tumor volume [2, 6]","tumor growth inhibition ([3]; BC146, 5 mg/kg i.p. once daily for 5 weeks, end of treatment)","OS: Overall survival [3, 7]","RTV: Relative tumor volume [3, 7]","tumor relapse ([3]; DPT-C9h combined with doxorubicin and cyclophosphamid, simultaneous or sequential (from day 20), versus chemotherapy alone)","CR: Complete remission ([3]; Treatment (Chemo.) = Doxorubicin 2 mg/kg + cyclophosphamid 100 mg/kg i.p. day 1, DPT-C9h simultaneous or from day 20)","apoptosis (annexin staining), combination effect ([4]; 5FU 10 μM 24 h, then 25 or 50 μM DPT-C9h for 24 further h)","apoptosis (annexin staining), combination effect ([4]; cisplatin 10 μM 24 h, then increasing doses of DPT-C9h for 24 further h)","apoptosis (annexin staining), combination effect ([4]; different doses of DPT-C9h + doxorubicin 0.25 μM, 24 h)","apoptosis (annexin staining), combination effect ([4]; docetaxel 0.5 μM + 10 and 25 μM DPT-C9h, 24 h)",cell survival (MTT) ([5]; different doses of 5FU + DPT-C9h 10 μM),cell survival (MTT) ([5]; different doses of cisplatin + DPT-C9h 10 μM),"cell survival (MTT) ([5]; different doses of docetaxel + DPT-C9h 10 μM, versus docetaxel only)"
VKKKKIKREIKI-YIETLDDILEQWARSEDL (VKKKKIKREIKIYIETLDDILEQWARSEDL; cell penetrating peptide) [DPT-C9],significant tumor growth inhibition,–,–,–,–,–,–,–,–,–,–,–,–,–,–,–
VKKKKIKREIKI-YVETLDDIFEQWAHSEDL (VKKKKIKREIKIYVETLDDIFEQWAHSEDL; cell penetrating peptide) [DPT-C9h],–,significant tumor growth inhibition,33%,0.70,significant tumor growth inhibition,27%,20.2,delayed tumor relapse better than chemotherapy alone,0%,synergistic apoptotic effect,synergistic apoptotic effect,synergistic effect on apoptosis,synergistic apoptotic effect,low cell survival,low level of cell survival,low survival
